These results are taken from patent US5621113A, “4-[(thien-2-yl)methyl]-imidazole analgesics” (priority 1996, dated 1997).

SMILES strings stand for the structures. Where a name gives a salt, the structure may show the parent alone. Read-outs that look alike come from different tables or passages of the source.

Assay [1] has as its system acetylcholine bromide-induced abdominal constriction response. In words: Mouse Acetylcholine Bromide-Induced Abdominal Constriction Assay. Particulars: for inhibition in vivo at 30 mg/kg / ED50: Mus musculus; for inhibition in vivo at 30 mg/kg: po; for ED50: 0.5 h, oral, 30 minutes before acetylcholine bromide 5.5 mg/kg i.p., dose producing 50% analgesia. The class given is in vivo. As to the method: Mouse Acetylcholine Bromide-Induced Abdominal Constriction Assay
The mouse acetylcholine bromide-induced abdominal constriction assay, as described by Collier et al. in Brit. J. Pharmacol. Chem. Ther., 32: 295-310, 1968, with minor modifications was used to assess analgesic potency of the compounds herein. The test drugs or appropriate vehicle were administered orally (p.o.) and 30 minutes later the animal received an intraperitoneal (i.p.) injection of 5.5 mg/kg acetylcholine bromide (Matheson, Coleman and Bell, East Rutherford, N.J.). The mice were then placed in groups of three into glass bell jars and observed for a ten minute observation period for the occurrence of an abdominal constriction response (defined as a wave of constriction and elongation passing caudally along the abdominal wall, accompanied by a twisting of the trunk and followed by extension of the hind limbs). The percent inhibition of this response to a nociceptive stimulus (equated to % analgesia) was calculated as follows: The % Inhibition of response, i.e., % analgesia is equal to the difference between the number of control animals response and the number of drug-treated animals response times 100 divided by the number of control animals responding.
At least 15 animals were used for control and in each of the drug treated groups. At least three doses were used to determine each dose response curve and ED50 (that dose which would produce 50% analgesia). The ED50 values and their 95% fiducial limits were determined by a computer assisted probit analysis.

Assay [2] concerns the target T1, Alpha2D adrenergic receptor (Rattus norvegicus, UniProt P22909).
T1 construct: The cortex is dissected out and homogenized in 20 volumes of HEPES sucrose; from tissue; host or cells: rat brain cortex, synaptic membrane fraction (male Wistar rats, Charles River)
T1 sequence (P22909 1-465): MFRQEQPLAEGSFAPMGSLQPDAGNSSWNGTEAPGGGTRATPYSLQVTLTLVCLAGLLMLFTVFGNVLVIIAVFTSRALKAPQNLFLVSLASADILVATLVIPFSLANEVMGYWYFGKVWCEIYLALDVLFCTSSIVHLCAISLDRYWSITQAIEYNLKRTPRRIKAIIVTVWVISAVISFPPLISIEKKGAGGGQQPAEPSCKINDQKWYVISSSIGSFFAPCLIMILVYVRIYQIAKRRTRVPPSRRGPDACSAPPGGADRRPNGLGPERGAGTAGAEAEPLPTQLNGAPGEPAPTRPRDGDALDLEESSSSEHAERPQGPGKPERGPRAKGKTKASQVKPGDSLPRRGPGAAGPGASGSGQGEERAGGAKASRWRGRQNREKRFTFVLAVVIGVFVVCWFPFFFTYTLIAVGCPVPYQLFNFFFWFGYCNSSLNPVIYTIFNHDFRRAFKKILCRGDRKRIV
Kind of assay: Alpha2D adrenergic receptor binding assay (3H-para-aminoclonidine, rat cortex synaptic membranes). On the set-up: species or system rat (male Wistar). As to the method:
Alpha2D adrenergic receptor binding assay
Male, Wistar rats (150-250 g, VAF, Charles River, Kingston, N.Y.) are sacrificed by cervical dislocation and their brains removed and placed immediately in ice cold HEPES buffered sucrose. The cortex is dissected out and homogenized in 20 volumes of HEPES sucrose in a Teflon®-glass homogenizer. The homogenate is centrifuged at 1000 g for 10 min, and the resulting supernatant centrifuged at 42,000 g for 10 min. The resulting pellet is resuspended in 30 volumes of 3 mM potassium phosphate buffer, pH 7.5, preincubated at 25° C. for 30 min and recentrifuged. The resulting pellet is resuspended as described above and used for the receptor binding assay. Incubation is performed in test tubes containing phosphate buffer, 2.5 mM MgCl2, aliquots of the synaptic membrane fraction, the ligand ^3 H-para-aminoclonidine and test drug at 25° C. for 20 min. The incubation is terminated by filtration of the tube contents through glass fiber filter sheets. Following washing of the sheets with 10 mM HEPES buffer, the adhering radioactivity is quantified by liquid scintillation spectrometry.
Binding of the test drug to the receptor is determined by comparing the amount of radiolabeled ligand bound in control tubes without drug to the amount of radiolabeled ligand bound in the presence of the drug. Dose-response data are analyzed with LIGAND, a nonlinear curve fitting program designed specifically for the analysis of ligand binding data. This assay is described by Simmons, R. M. A., and Jones, D. J., Binding of [^3 H-]prazosin and [^3 H-]p-aminoclonidine to α-Adrenoceptors in Rat Spinal Cord, Brain Research 445:338-349, 1988.

[3] abbreviates: @ 30 mpk (route not given; method: orally).
Setting [4] is: displacement of 3H-para-aminoclonidine, rat cortex membranes, 25° C., 20 min, read-out: Ki.

The inhibition in vivo is the relative decrease from the control value, in per cent. The term Ki denotes the equilibrium dissociation constant of an inhibitor or competing ligand from its target. For the molecule `Cc1csc(Cc2c[nH]cn2)c1C` [Cp-5, 4-[(3,4-dimethylthien-2-yl)methyl]-1H-imidazole hydrochloride], the inhibition in vivo at 30 mg/kg in assay [1] (@ 30 mpk/po) was 100%. This molecule registered a Ki in assay [2] of 0.17 nM.

In general, ED50 refers to the midpoint of the dose-response relation. Higher therefore signals a need for a large dose. In turn, `CC(c1c[nH]cn1)c1sccc1Br.Cl` (stereo not shown) [Cp-4, 4-[1-(3-Bromothien-2-yl)-ethyl]-1H-imidazole Hydrochloride] returned an ED50 in assay [1] of 2.1 mg/kg. In addition, the Ki in assay [2] is 0.96 nM.

For the molecule `Brc1ccsc1Cc1c[nH]cn1.Cl` [Cp-3, 4-[(3-Bromothien-2-yl)methyl]-1H-imidazole Hydrochloride], in assay [1], the 50% effect level (ED50) was put at a dose of 1.7 mg/kg. Besides, in assay [2], the affinity corresponds to a Ki of 0.35 nM.

As to `c1csc(Cc2c[nH]cn2)c1` [reference compound], in assay [1] (setting [3]), the inhibition in vivo at 30 mg/kg is 60%. For the same molecule, the Ki in assay [2] was found to be 8.7 nM.

For `Cc1ccsc1Cc1c[nH]cn1.Cl` [Cp-1, 4-[(3-Methylthien-2-yl)methyl]-1H-imidazole Hydrochloride], it took a dose of 0.94 mg/kg to reach the 50% effect level in assay [1] (ED50). In assay [2], this molecule yielded a Ki of 0.45 nM.

Take `Cc1ccsc1C(C)c1c[nH]cn1.Cl` (stereo not shown) [Cp-2, 4-[1-(3-methylthien-2-yl)ethyl]-1H-imidazole hydrochloride]: the 50% effect level in assay [1] (ED50) was put at a dose of 1.4 mg/kg. Besides, the Ki in assay [2] turned out to be 2.1 nM.

Turning to `CC(c1c[nH]cn1)c1scc(Br)c1Br` (stereo not shown) [Cp-8, 4-[(3,4-dibromothien-2-yl)ethyl]-1H-imidazole fumarate], the ED50 in assay [1] came to 5.7 mg/kg. Further, in assay [2], the Ki amounted to 0.07 nM.

As for `Brc1csc(Cc2c[nH]cn2)c1` [Cp-9, 4-[-(4-Bromothien-2-yl)methyl]1H-imidazole Hydrochloride], at 30 mg/kg the inhibition in vivo in assay [1] (@ 30 mpk/po) was 80%. The same molecule displayed a Ki in assay [2] of 1.4 nM.

`Brc1csc(Cc2c[nH]cn2)c1Br` [Cp-7, 4-[-(3,4-dibromothien-2-yl)methyl]-1H-imidazole fumarate] showed an inhibition in vivo at 30 mg/kg in assay [1] (@ 30 mpk/po) of 80%. Also, the Ki in assay [2] was 0.43 nM.

As for `CC(C)=C(c1c[nH]cn1)c1sccc1C` [drawing 24, reference compound], the “Mouse Abdominal Constriction % Inhibition” value in assay [1] (setting [3]) is reported as 47%. Besides, the inhibitory constant (Ki) in assay [2] (setting [4]) worked out at 335 nM.

`Cc1ccc(Cc2c[nH]cn2)s1` [reference compound] returned an inhibition in vivo at 30 mg/kg in assay [1] (setting [3]) of 33%. The affinity in assay [2] corresponds to a Ki of 3.6 nM.

With `CC(C)=C(c1c[nH]cn1)c1sccc1C` [drawing 25, reference compound], the “Mouse Abdominal Constriction % Inhibition” value in assay [1] (setting [3]) is 73%. Besides, the Ki in assay [2] (setting [4]) was found to be 1000 nM.

Regarding `CCC(c1c[nH]cn1)c1sccc1C` (stereo not shown) [reference compound], at 30 mg/kg the inhibition in vivo in assay [1] (setting [3]) was 100%. The affinity in assay [2] corresponds to a Ki of 8.3 nM.

In assay [1] (@ 30 mpk/po), `Cc1csc(C(C)c2c[nH]cn2)c1C` (stereo not shown) [Cp-6, 4-[-(3,4-Dimethylthien-2-yl)ethyl]-1H-imidazole Fumarate] came in with an inhibition in vivo at 30 mg/kg of 87%. This molecule returned a Ki in assay [2] of 0.75 nM.
